Entries after “also recorded” stand apart in the source; their conditions may differ.
Tests used:
[1] = molecular target: P-gp in HCT-15 cells (Homo sapiens, UniProt P08183); experiment: P-gp efflux: cellular fluorescence with or without verapamil by flow cytometry, HCT-15; conditions: probe 1 μM
Method: Studies were conducted to investigate the efflux of Compound 1 in HCT-15 cells that express high levels of P-gp. Compound 1 was compared with rhodamine 123 (Rho123), a common P-gp substrate that accumulates in mitochondria.

[2] = molecular target: P-gp in HeLa cells (Homo sapiens, UniProt P08183); experiment: P-gp efflux: cellular fluorescence with or without verapamil by flow cytometry, HeLa; conditions: probe 1 μM
P-gp in HeLa cells, sequence (P08183 whole entry): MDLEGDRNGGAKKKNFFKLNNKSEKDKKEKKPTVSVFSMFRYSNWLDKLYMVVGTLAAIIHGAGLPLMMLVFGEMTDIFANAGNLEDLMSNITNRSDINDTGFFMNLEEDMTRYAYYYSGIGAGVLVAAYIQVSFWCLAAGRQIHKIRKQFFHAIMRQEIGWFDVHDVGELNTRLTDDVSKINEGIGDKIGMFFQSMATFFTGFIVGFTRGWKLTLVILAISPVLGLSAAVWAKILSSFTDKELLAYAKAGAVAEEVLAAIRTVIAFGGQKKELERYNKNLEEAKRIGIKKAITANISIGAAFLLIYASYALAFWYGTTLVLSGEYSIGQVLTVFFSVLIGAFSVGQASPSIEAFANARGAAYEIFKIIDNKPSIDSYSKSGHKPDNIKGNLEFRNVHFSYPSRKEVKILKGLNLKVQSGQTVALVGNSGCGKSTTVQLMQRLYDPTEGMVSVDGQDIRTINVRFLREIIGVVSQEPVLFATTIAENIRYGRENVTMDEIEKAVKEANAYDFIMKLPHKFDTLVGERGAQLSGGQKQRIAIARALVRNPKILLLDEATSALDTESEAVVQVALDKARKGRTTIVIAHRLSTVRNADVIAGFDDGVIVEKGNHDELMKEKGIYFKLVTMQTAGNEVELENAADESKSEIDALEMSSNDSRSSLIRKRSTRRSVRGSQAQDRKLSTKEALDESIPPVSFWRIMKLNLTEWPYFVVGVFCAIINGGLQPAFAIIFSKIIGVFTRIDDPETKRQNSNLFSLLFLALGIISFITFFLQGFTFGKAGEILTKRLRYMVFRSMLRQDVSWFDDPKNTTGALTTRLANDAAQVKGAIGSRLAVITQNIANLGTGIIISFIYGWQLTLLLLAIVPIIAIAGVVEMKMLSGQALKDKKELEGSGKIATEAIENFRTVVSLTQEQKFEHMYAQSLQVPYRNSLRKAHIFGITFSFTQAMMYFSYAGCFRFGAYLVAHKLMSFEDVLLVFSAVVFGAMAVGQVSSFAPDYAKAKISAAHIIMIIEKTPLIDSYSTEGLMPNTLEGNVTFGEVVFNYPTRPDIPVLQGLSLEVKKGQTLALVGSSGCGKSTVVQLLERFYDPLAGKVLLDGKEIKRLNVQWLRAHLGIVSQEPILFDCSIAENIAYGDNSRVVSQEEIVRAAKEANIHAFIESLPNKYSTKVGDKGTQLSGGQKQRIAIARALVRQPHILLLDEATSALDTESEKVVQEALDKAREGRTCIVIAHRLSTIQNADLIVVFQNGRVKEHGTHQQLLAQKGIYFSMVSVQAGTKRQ

[3] = system: HeLa cells; experiment: Subcellular distribution and colocalization by confocal microscopy in living HeLa cells; type: cell-based; conditions: for binding to microtubules in cells: HeLa cells transfected with mCherry-tubulin; for subcellular distribution / colocalization: confocal microscopy, 1 h
Method: To examine the subcellular distribution of Compound 1, HeLa cells were imaged by confocal laser scanning microscopy (FIGS. 5A, 5B, and 5C). […] The distinct spectral profiles of PB and OG were used to further examine colocalization of Compound 1 and Flutax-2® (FIG. 5C).
The experiment was conducted by 1 hour incubation with HeLa cells, followed by a wash and then imaging using a 25% laser power with excitation at 405 nm and emission at 425-500 nm.
The studies compared the potency as an endoplasmic reticulum probe with commercial ER probe ER Tracker Blue-White DPX. […] Panels A and B used 1 nM of the compounds, Panels A1 and B1 used 10 nM of the compounds, Panels A2 and B2 used 100 nM of the compounds, and Panels A3 and B3 used 1 μM of the compounds.
As such, Compound 2 (PB-β-Ala-Taxol) was compared to iPr-Rhodol-β-Ala-Taxol with HeLa cells transfected with mCherry-tubulin.

[4] = system: HeLa cervical carcinoma cells; experiment: Cytotoxicity, cellular viability by flow cytometry, HeLa; conditions: for IC50 / relative toxicity (cellular viability versus concentration): HeLa cells; for IC50: 48 h; for relative toxicity (cellular viability versus concentration): FIG. 9
Method: The cytotoxicity of the taxane PB fluorophores towards HeLa cervical carcinoma cells (FIGS. 4A and 4B) was evaluated. These cell lines were treated for 48 h, cellular viability was analyzed by flow cytometry, and paclitaxel was used as a positive control.
The IC50s were also determined.

[5] = molecular target: cross-linked microtubules from bovine brain; experiment: Affinity for cross-linked microtubules by fluorescence enhancement; conditions: GAB buffer (pH 6.5); equilibrium binding curves; excitation 405 nm; read-out: apparent Kd
Method: PB was excited at 405 nm and emitted photons were collected at and above 450 nm.
Experiments were conducted to obtain the measured affinities of Compounds 1-3 for cross-linked microtubules from bovine brain using a fluorescence enhancement method (FIG. 2). […] PB was excited at 405 nm and emitted photons were collected at and above 450 nm.

[6] = system: HeLa, Ramos, Raji, HL-60, and Jurkat cell lines; experiment: Uptake into different cell lines by flow cytometry; type: cell-based; conditions: 1 μM, 1 h, 200,000 cells/200 μL; verapamil 0, 25, 100 μM
Method: The uptake of Compound 1 (PB-Gly-Taxol, at 1 μM, 1 h, 200,000 cells/200 μL) by different cell lines was studied and quantified by using flow cytometry.

[7] = system: HCT-15 cells; experiment: Cytotoxicity, cellular viability by flow cytometry, HCT-15; type: cell-based; conditions: for IC50: Homo sapiens, HCT-15, 48 h, 48 h

P-gp in HCT-15 cells, sequence (P08183 whole entry): as above

rhodamine 123 [Rho123]
increase of cellular fluorescence in presence of verapamil ([1]; verapamil 25 μM): 3 fold
increase of cellular fluorescence in presence of verapamil ([1]; verapamil 100 μM): 3 fold
detection of low levels of P-gp activity [2]: undetectable

CC(=O)O[C@H]1C(=O)[C@@]2(C)C([C@H](OC(=O)c3ccccc3)[C@]3(O)C[C@H](OC(O)[C@H](O)[C@@H](NC(=O)c4ccccc4)c4ccccc4)C(C)=C1C3(C)C)[C@]1(OC(C)=O)CO[C@@H]1C[C@@H]2OC(=O)CCNC(=O)c1ccc(-c2c3cc(F)c(=O)cc-3oc3cc(NC(C)C)c(F)cc23)c(C)c1 (stereo partly drawn) [iPr-Rhodol-β-Ala-Taxol, reference compound]
binding to microtubules in cells [3]: does not bind extensively to microtubules
subcellular distribution / colocalization ([3]; living HeLa cells): appears to accumulate predominantly in the endoplasmic reticulum
cytotoxicity (in words) [4]: without engendering substantial cytotoxicity

Flutax-2® [reference compound]
subcellular distribution / colocalization ([3]; living HeLa cells): punctate fluorescence that did not co-localize with Compound 1 on microtubules
IC50 ([4]; presence of verapamil (25 μM)): 1310 nM

CC(=O)OC1C(=O)C2(C)C(OC(=O)CCNC(=O)c3cc4cc(F)c(O)c(F)c4oc3=O)CC3OCC3(OC(C)=O)C2C(OC(=O)c2ccccc2)C2(O)CC(OC(=O)C(O)C(NC(=O)c3ccccc3)c3ccccc3)C(C)=C1C2(C)C (stereo not drawn) [Compound 2, PB-β-Ala-Taxol]
binding to microtubules in cells [3]: can bind to microtubules better than when paclitaxel is coupled to a different fluorophore
Kd [5]: 63 ± 8 nM

PB-NH2-Gly-Taxol [Compound 22]
subcellular distribution / colocalization ([3]; living HeLa cells): accumulate in the endoplasmic reticulum

CC(=O)OC1C(=O)C2(C)C(OC(=O)CNC(=O)c3cc4cc(F)c(O)c(F)c4oc3=O)CC3OCC3(OC(C)=O)C2C(OC(=O)c2ccccc2)C2(O)CC(OC(=O)C(O)C(NC(=O)c3ccccc3)c3ccccc3)C(C)=C1C2(C)C (stereo not shown) [Compound 1, PB-Gly-Taxol]
subcellular distribution / colocalization ([3]; living HeLa cells): bound microtubules with very high specificity
relative toxicity (cellular viability versus concentration) [4]: less toxic than PB-NHMe-Gly-Taxol (Compound 21); also recorded: less toxic than paclitaxel
IC50 ([4]; Homo sapiens, HeLa, absence of verapamil): 120 nM
IC50 ([4]; Homo sapiens, HeLa, presence of verapamil (25 μM)): 60 nM
effect of verapamil on uptake [6]: the inclusion of verapamil increased the uptake
IC50 ([7]; with verapamil (25 μM)): 90 nM
IC50 ([7]; without verapamil): 3700 nM
enhancement of toxicity by verapamil ([7]; verapamil 25 μM versus none): 41 fold
Kd [5]: 34 ± 6 nM

PB-NHMe-Gly-Taxol [Compound 21]
potency as endoplasmic reticulum probe ([3]; living HeLa cells, 1 nM to 1 μM, versus ER Tracker Blue-White DPX): more potent as an endothelium reticulum probe compared to ER Tracker Blue-White DPX
subcellular distribution / colocalization ([3]; living HeLa cells): does not appear to colocalize with Flutax-2® on microtubules
subcellular distribution / colocalization ([3]; living HeLa cells, listed as PB-NHMe-Gly-Taxol): accumulate in the endoplasmic reticulum; also recorded: colocalizes with the red fluorescent endoplasmic reticulum probe HRA
relative toxicity (cellular viability versus concentration) [4]: less toxic than paclitaxel

CC(=O)OC1C(=O)C2(C)C(OC(=O)CCCNC(=O)c3cc4cc(F)c(O)c(F)c4oc3=O)CC3OCC3(OC(C)=O)C2C(OC(=O)c2ccccc2)C2(O)CC(OC(=O)C(O)C(NC(=O)c3ccccc3)c3ccccc3)C(C)=C1C2(C)C (stereo not shown) [Compound 3, PB-GABA-Taxol]
Kd [5]: 265 ± 54 nM

Reference: US10399964B2, “Coumarin-linked taxanes for detection and circumvention of cellular efflux” (The University of Kansas, priority 2017, dated 2019)
